Measurements from patent US11952365B2, “Anti-viral compounds” (Aligos Therapeutics, Inc., priority 2020, dated 2024).
Like-named read-outs stand apart in the source and are kept apart here.

How the values were obtained:
[1] = Cytotoxicity plates without OC43 virus (cell-titer-glo); type: cell-based, human; details: human; HeLa cells without OC43 virus, class symbols
In short: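 HeLa cells seeded overnight, then treated with serially diluted compounds in 2% FBS EMEM, uninfected, in parallel with the OC43 antiviral plates. Incubated 6 days at 33 °C; viability read by CellTiter-Glo luminescence.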

[2] = tested on: SARS-CoV-2-GHB-03021/2020; assay: SARS-CoV-2 Infection Model in Huh7 Cells; type: cell-based; details: Severe acute respiratory syndrome coronavirus 2, Huh-7, 96 h, SARS-CoV-2, day 4 p.i., MTS
in vitro [3] = details: human
[4] = tested on: SARS-CoV-2-GHB-03021/2020; assay: microbe, parasite or virus in culture; type: cell-based; details: Severe acute respiratory syndrome coronavirus 2, Vero C1008, 96 h; read-out: VeroE6 + CP (EC50)
HRV3C = HRV3C (Human rhinovirus 14, UniProt P03303); assay: HRV3C protease assay (duplex, SAMDI-MS); type: biochemical, HRV; details: 30 mins preincubation
In short: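 Enzyme preincubated 30 min with compound at ambient temperature, then both biotinylated peptide substrates added (duplex with 3CLpro); 30 min reaction quenched with 0.5% formic acid (final). Product read by SAMDI-MS as product/internal-standard AUC ratio; IC50 from four-parameter fit.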

3CLpro = 3CLpro (Severe acute respiratory syndrome coronavirus 2, UniProt P0DTD1); assay: SARS-CoV-2 3CLpro protease assay (duplex, SAMDI-MS); type: biochemical; design: For the duplex assay, 3CLpro and HRV3C was added; details: 30 mins preincubation, class symbols
human cathepsin L = molecular target: T1, human cathepsin L (Homo sapiens, UniProt P07711); assay: cathepsin L assay; type: biochemical; details: 10 pM human cathepsin L, Z-FR-AMC 2 μM, class symbols
T1 construct: purchased R&D Systems
In short: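 Human cathepsin L at 10 pM was preincubated 30 min with compound, then reaction started with Z-FR-AMC (2 μM final). Fluorescence (355/460 nm) read every 2 min for 30 min; IC50 from four-parameter curve fit.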

[5] = tested on: human beta-coronavirus OC43; assay: microbe, parasite or virus in culture; type: cell-based; details: Betacoronavirus 1, OC43, HeLa, 144 h
in vitro [6] = details: African green monkey, VeroE6 + CP (CC50), Vero E6-eGFP cells with CP-100356, absence of virus, MTS
[7] = HRV3C, bound, read-out: HRV IC50
[8] = 3CLpro, read-out: SARS-Cov-2 IC50
[9] = OC43 in HeLa cells, 6 days at 33° C., class symbols, read-out: EC50
[10] = HRV3C, class symbols, read-out: HRV IC50

O=C1NCC[C@H]1C[C@H](NC(=O)[C@@H]1[C@H]2CCC[C@H]2CN1C(=O)c1cc2c(Cl)cc(OCc3ccccc3)cc2[nH]1)C(=O)CO [Compound 130, (1S,3aR,6aS)-2-(6-(benzyloxy)-4-chloro-1H-indole-2-carbonyl)-N—((S)-4-hydroxy-3-oxo-1-((S)-2-oxopyrrolidin-3-yl)butan-2-yl)octahydrocyclopenta[c]pyrrole-1-carboxamide]
CC50 at 6 days [1]: > 10 µM | EC50 ([2]; class symbols): < 1 µM | CC50 (in vitro [3]): > 10 µM | EC50 [4]: < 1 µM | IC50 (HRV3C; [7]): > 10 µM | IC50 (3CLpro; [8]): 0.02 to 0.2 µM | IC50 (human cathepsin L): ≥ 10 µM | EC50 [5, 9]: < 0.1 µM | CC50 (in vitro [6]; class symbols): > 10 µM

CC(C)(C)C(=O)OCC(=O)[C@H](C[C@@H]1CCNC1=O)NC(=O)[C@@H]1[C@H]2CCC[C@H]2CN1C(=O)c1cc2c(Cl)cc(Cl)cc2[nH]1 [Compound 132, (3S)-3-{[(1S,3aR,6aS)-2-(4,6-dichloro-1H-indole-2-carbonyl)-hexahydro-1H-cyclopenta[c]pyrrol-1-yl]formamido}-2-oxo-4-[(3S)-2-oxopyrrolidin-3-yl]butyl 2,2-dimethylpropanoate]
CC50 at 6 days [1]: 1 to 10 µM | EC50 ([2]; class symbols): < 1 µM | CC50 (in vitro [3]): > 10 µM | EC50 [4]: < 1 µM | IC50 (HRV3C; [7]): > 10 µM | IC50 (3CLpro; [8]): 0.2 to 2 µM | IC50 (human cathepsin L): ≥ 10 µM | EC50 [5, 9]: < 0.1 µM | CC50 (in vitro [6]; class symbols): > 10 µM

O=C1NCC[C@H]1C[C@H](NC(=O)[C@@H]1[C@H]2CCC[C@H]2CN1C(=O)c1cc2c(OCc3ccccc3)cccc2[nH]1)C(=O)CO [Compound 133, (1S,3aR,6aS)-2-[4-(benzyloxy)-1H-indole-2-carbonyl]-N-[(2S)-4-hydroxy-3-oxo-1-[(3S)-2-oxopyrrolidin-3-yl]butan-2-yl]-hexahydro-1H-cyclopenta[c]pyrrole-1-carboxamide]
CC50 at 6 days [1]: > 10 µM | EC50 ([2]; class symbols): < 1 µM | CC50 (in vitro [3]): > 50 µM | EC50 [4]: < 1 µM | IC50 (HRV3C; [7]): > 10 µM | IC50 (3CLpro; [8]): < 0.02 µM | IC50 (human cathepsin L): ≥ 10 µM | EC50 [5, 9]: < 0.1 µM | CC50 (in vitro [6]; numeric bounds): > 50 µM

COc1cccc2[nH]c(C(=O)N3C[C@@H]4CCC[C@@H]4[C@H]3C(=O)N[C@@H](C[C@@H]3CCNC3=O)C(=O)C(=O)NCCOc3ccccc3)cc12 [Compound 134]
CC50 at 6 days [1]: > 10 µM | EC50 ([2]; class symbols): 1 to 10 µM | CC50 (in vitro [3]): > 50 µM | EC50 [4]: 1 to 10 µM | IC50 (HRV3C; [10]): 2 to 20 µM | IC50 (3CLpro; [8]): < 0.02 µM | IC50 (human cathepsin L): ≥ 10 µM | EC50 [5, 9]: 0.1 to 1 µM | CC50 (in vitro [6]; numeric bounds): > 50 µM

O=C1NCC[C@H]1C[C@H](NC(=O)[C@@H]1[C@H]2[C@H]3CC[C@H](C3)[C@H]2CN1C(=O)c1cc2c(Cl)cc(Cl)cc2[nH]1)C(=O)CO [Compound 135, (1S,3aR,4R,7S,7aS)-2-(4,6-dichloro-1H-indole-2-carbonyl)-N—((S)-4-hydroxy-3-oxo-1-((S)-2-oxopyrrolidin-3-yl)butan-2-yl)octahydro-1H-4,7-methanoisoindole-1-carboxamide]
CC50 at 6 days [1]: > 10 µM | EC50 ([2]; class symbols): < 1 µM | CC50 (in vitro [3]): > 10 µM | EC50 [4]: < 1 µM | IC50 (HRV3C; HRV IC50, HRV3C, class symbols): 2 to 20 µM | IC50 (3CLpro; [8]): 0.02 to 0.2 µM | IC50 (human cathepsin L): ≥ 10 µM | EC50 [5, 9]: 0.1 to 1 µM | CC50 (in vitro [6]; class symbols): > 10 µM

O=C1NCC[C@H]1C[C@H](NC(=O)[C@@H]1[C@@H]2[C@H](CN1C(=O)c1cc3c(Cl)cc(Cl)cc3[nH]1)[C@@H]1C=C[C@H]2C1)C(=O)CO [Compound 136, (1R,2S,3S,6R,7S)-4-(4,6-dichloro-1H-indole-2-carbonyl)-N-[(2S)-4-hydroxy-3-oxo-1-[(3S)-2-oxopyrrolidin-3-yl]butan-2-yl]-4-azatricyclo[5.2.1.0^{2,6}]dec-8-ene-3-carboxamide]
CC50 at 6 days [1]: > 10 µM | EC50 ([2]; class symbols): < 1 µM | CC50 (in vitro [3]): > 50 µM | EC50 [4]: < 1 µM | IC50 (HRV3C; [10]): 2 to 20 µM | IC50 (3CLpro; [8]): < 0.02 µM | IC50 (human cathepsin L): ≥ 10 µM | EC50 [5, 9]: < 0.1 µM | CC50 (in vitro [6]; numeric bounds): > 50 µM

O=C1NCC[C@H]1C[C@H](NC(=O)[C@@H]1[C@H]2CCC[C@H]2CN1C(=O)c1cc2c(Cl)ccc(Oc3ccccc3)c2[nH]1)C(=O)CO [Compound 137, (1S,3aR,6aS)-2-(4-chloro-7-phenoxy-1H-indole-2-carbonyl)-N-[(2S)-4-hydroxy-3-oxo-1-[(3S)-2-oxopyrrolidin-3-yl]butan-2-yl]-hexahydro-1H-cyclopenta[c]pyrrole-1-carboxamide]
CC50 at 6 days [1]: > 10 µM | EC50 ([2]; class symbols): < 1 µM | CC50 (in vitro [3]): > 10 µM | EC50 [4]: 1 to 10 µM | IC50 (HRV3C; HRV IC50, HRV3C, bound): > 10 µM | IC50 (3CLpro; SARS-Cov-2 IC50, 3CLpro): 0.02 to 0.2 µM | IC50 (human cathepsin L): ≥ 10 µM | EC50 [5, 9]: < 0.1 µM | CC50 (in vitro [6]; numeric bounds): > 50 µM

O=C1NCC[C@H]1C[C@H](NC(=O)[C@@H]1[C@H]2CCC[C@H]2CN1C(=O)c1cc2c(OC3CC3)cc(Cl)cc2[nH]1)C(=O)CO [Compound 138, (1S,3aR,6aS)-2-(6-chloro-4-cyclopropoxy-1H-indole-2-carbonyl)-N-[(2S)-4-hydroxy-3-oxo-1-[(3S)-2-oxopyrrolidin-3-yl]butan-2-yl]-hexahydro-1H-cyclopenta[c]pyrrole-1-carboxamide]
CC50 at 6 days [1]: > 10 µM | EC50 ([2]; class symbols): < 1 µM | CC50 (in vitro [3]): > 50 µM | EC50 [4]: 1 to 10 µM | IC50 (HRV3C; [10]): 2 to 20 µM | IC50 (3CLpro; [8]): < 0.02 µM | IC50 (human cathepsin L): ≥ 10 µM | EC50 [5, 9]: < 0.1 µM | CC50 (in vitro [6]; numeric bounds): > 50 µM

O=C1NCC[C@H]1C[C@H](NC(=O)[C@@H]1[C@H]2CCC[C@H]2CN1C(=O)c1nc2c(Cl)ccc(Cl)c2[nH]1)C(=O)CO [Compound 139, (1S,3aR,6aS)-2-(4,7-dichloro-1H-1,3-benzodiazole-2-carbonyl)-N-[(2S)-4-hydroxy-3-oxo-1-[(3S)-2-oxopyrrolidin-3-yl]butan-2-yl]-hexahydro-1H-cyclopenta[c]pyrrole-1-carboxamide]
CC50 at 6 days [1]: > 10 µM | EC50 ([2]; class symbols): < 1 µM | CC50 (in vitro [3]): > 50 µM | EC50 [4]: < 1 µM | IC50 (HRV3C; HRV IC50, HRV3C, bound): > 10 µM | IC50 (3CLpro; [8]): < 0.02 µM | IC50 (human cathepsin L): ≥ 10 µM | EC50 [5]: 0.1 to 1 µM | CC50 (in vitro [6]; numeric bounds): > 50 µM

O=C(NC1CC1)C(=O)[C@H](C[C@@H]1CCNC1=O)NC(=O)[C@@H]1CC2(CCN1C(=O)c1cc3ccccc3[nH]1)CC2 [Compound 140, (S)—N—((S)-4-(cyclopropylamino)-3,4-dioxo-1-((S)-2-oxopyrrolidin-3-yl)butan-2-yl)-6-(1H-indole-2-carbonyl)-6-azaspiro[2.5] octane-5-carboxamide]
CC50 at 6 days [1]: > 10 µM | EC50 ([2]; class symbols): 1 to 10 µM | CC50 (in vitro [3]): > 10 µM | EC50 [4]: 1 to 10 µM | IC50 (HRV3C; HRV IC50, HRV3C, class symbols): 2 to 20 µM | IC50 (3CLpro; [8]): 0.02 to 0.2 µM | IC50 (human cathepsin L): ≥ 10 µM | EC50 [5]: 0.1 to 1 µM | CC50 (in vitro [6]; numeric bounds): > 50 µM

O=C(NC1CC1)C(=O)[C@H](C[C@@H]1CCNC1=O)NC(=O)[C@@H]1CC2(CCN1C(=O)c1cc3c(Cl)cc(Cl)cc3[nH]1)CC2 [Compound 141]
CC50 at 6 days [1]: > 10 µM | EC50 ([2]; numeric bounds): > 50 µM | CC50 (in vitro [3]): > 10 µM | EC50 [4]: > 50 µM | IC50 (HRV3C; [10]): 2 to 20 µM | IC50 (3CLpro; [8]): 0.02 to 0.2 µM | IC50 (human cathepsin L): 0.1 to 1 µM | EC50 [5, 9]: 0.1 to 1 µM | CC50 (in vitro [6]; numeric bounds): > 50 µM

COc1cccc2[nH]c(C(=O)N3C[C@@H]4CCC[C@@H]4[C@H]3C(=O)N[C@H](C=O)CC3CCNS3(=O)=O)cc12 (stereo partly drawn) [Compound 142, (1S,3aR,6aS)—N-((2S)-1-(1,1-dioxidoisothiazolidin-5-yl)-3-oxopropan-2-yl)-2-(4-methoxy-1H-indole-2-carbonyl)octahydrocyclopenta[c]pyrrole-1-carboxamide]
CC50 at 6 days [1]: > 10 µM | EC50 ([2]; numeric bounds): > 10 µM | CC50 (in vitro [3]): > 10 µM | EC50 [4]: > 50 µM | IC50 (HRV3C; HRV IC50, HRV3C, bound): > 10 µM | IC50 (3CLpro; [8]): 0.2 to 2 µM | IC50 (human cathepsin L): ≥ 10 µM | EC50 ([5]; OC43 in HeLa cells, 6 days at 33° C., bound, read-out: EC50): > 10 µM | CC50 (in vitro [6]; numeric bounds): > 50 µM

O=C1NCC[C@H]1C[C@H](NC(=O)[C@@H]1[C@H]2CCC[C@H]2CN1C(=O)c1cc2c(Cl)c(F)cc(F)c2[nH]1)C(=O)CO [Compound 143, (1S,3aR,6aS)-2-(4-chloro-5,7-difluoro-1H-indole-2-carbonyl)-N-[(2S)-4-hydroxy-3-oxo-1-[(3S)-2-oxopyrrolidin-3-yl]butan-2-yl]-hexahydro-1H-cyclopenta[c]pyrrole-1-carboxamide]
CC50 at 6 days [1]: > 10 µM | EC50 ([2]; class symbols): < 1 µM | CC50 (in vitro [3]): > 10 µM | EC50 [4]: < 1 µM | IC50 (HRV3C; HRV IC50, HRV3C, bound): > 10 µM | IC50 (3CLpro; [8]): 0.02 to 0.2 µM | IC50 (human cathepsin L): ≥ 10 µM | EC50 [5]: 0.1 to 1 µM | CC50 (in vitro [6]; numeric bounds): > 50 µM
